“Also recorded” adds a separate entry of the source. Where a name gives a salt, the structure may show the parent alone. Read-outs that look alike come from different tables or passages of the source.
Tests used:
HIV-1 LTR promoter [1] = assay type: cell-based
[2] = tested on: latent HIV-1 in JLat 8.6 cells; assay type: cell-based
[3] = tested on: latent HIV-1 in primary human CD4+ T cells; assay type: cell-based
Source text: (§1) Details on the Siliciano T-Cell model of HIV-1 latency can be found in Yang et al., 2009, J Clin Invest 119:3473-3486. Details on the Planelles T-Cell model of HIV-1 latency can be found in Bosque and Planelles, 2009, Blood 113:58-65.
(§2) To test if VMs enhance reactivation in a primary cell model of latency 14 VMs were selected from the 85 VMs initially screened on the JLat cell line. […] Two separate primary cell models of latency were screened (Bosque and Planelles, 2009, Blood 113:58-65; Yang et al., 2009, J Clin Invest 119:3473-3486) The Siliciano model of latency is generated using primary human CD4+ T cells which are transduced with Bcl-2 to allow long-term in vitro survival. The Bcl-2^+ cells are activated with -CD3/-CD28 antibody and infected with a GFP expressing virus. Cells remain in culture for over a month to allow transition into resting memory states and then sorted for GFP-cells after which the sorted cells are the latent pool of cells tested for reactivation. […] Reactivation experiments were designed with a positive control (PMA with Ionomycin or -CD3/-CD28 activation) as well as media only or VM treatment measurements.

[4] = tested on: latent HIV-1 in primary cells of two donors; assay type: cell-based
Source text: as §1, §2

HIV-1 LTR promoter [5] = experiment: Single-cell time-lapse fluorescence microscopy of polyclonal LTR d2GFP cell population; assay type: cell-based
Source text: Lentiviral vectors expressing the LTR-GFP cassette in the absence of Tat were described (Weinberger et al., 2005, Cell, 122(2):169-182) and used to infect 5×10^5 Jurkat cells at a multiplicity of infection <0.1, resulting in 25,000-50,000 infected cells each presumably with a unique integration site. Cells were then sorted by FACS to isolate green fluorescent protein-labeled (GFP+) cells and fluorescently imaged on glass-bottom dishes in RPMI 1640 with 10% fetal calf serum and 1% penicillin-streptomycin and 10 μM of VM at t=0 h for the population which was pre-treated with VM 1 day before imaging. […] For each trajectory, noise autocorrelation [Φ(t)] and magnitude (CV^2) were calculated using an established noise-processing algorithm (Weinberger at al., 2008, Nature Genetics, 40(4):466-470; Dar at al., 2012, Proc Natl Acad Sci USA 109:17454-17459; Boehm et al., 2013, Cell Cycle 12:452-462).
To assess whether identified VMs are specific to the integration site of the drug screen target, a polyclonal LTR d2GFP population was treated with select VM hits and imaged using time-lapse single cell fluorescence microscopy (Dar et al., 2012, Proc Natl Acad Sci USA 109:17454-17459; Boehm et al., 2013, Cell Cycle 12:452-462) (FIG. 6C). […]

[6] = tested on: latent HIV-1 in JLat cell lines; experiment: Dose response of reactivation in JLat cell lines (FIG. 14); assay type: cell-based; details: with TNF or Prostratin
Experimental: FIGS. 14A and 14B schematically depict dose response curves for compounds V14 and V82 with TNF and Prostratin. FIG. 14A schematically depicts V14 dose response curves with four different concentrations of TNF (left) and five different concentrations of Prostratin (right) at 24 and 48 hours. […] Details are described, e.g., in Example 9.
(§3) To test whether reactivation could be further optimized, the doses of noise enhancers and activators were varied (FIG. 14).

JLat cell line 8.6 = tested on: JLat cell line 8.6
Experimental: FIG. 17 schematically depicts reactivation percentage versus drug toxicity for conventional reactivation cocktails (e.g. TNF+Prostratin, SAHA+Prostratin, SAHA+TNF+Prostratin) and 21 cocktails containing noise-enhancer compounds in combination with TNF+Prostratin. Controls: TNF alone, Prostratin alone, and Untreated, as indicated. Measurements were performed in duplicate on JLat cell line 8.6 after 48 h treatment. […] Details are described, e.g., in Example 9.
as §3

[7] = Pharmakon 1600 library, 10 uM, 24 hours, FIG. 10

SMILES: C[C@]12C=CC(=O)N[C@@H]1CC[C@@H]1[C@@H]2CC[C@]2(C)[C@@H](C(=O)Nc3cc(C(F)(F)F)ccc3C(F)(F)F)CC[C@@H]12 [V10, dutasteride]
- identified as variability enhancer (VE) in noise screen (HIV-1 LTR promoter [1]): variability enhancers
- synergy in reactivation of HIV-1 latency [2]: synergized
- synergy with activators [3]: synergized with either PMA, prostratin or bryostatin; also recorded: appear to synergize with all three activators

SMILES: O=C(O)Cc1ccc(-c2ccccc2)cc1 [V4, felbinac]
- identified as variability enhancer (VE) in noise screen (HIV-1 LTR promoter [1]; [7]): variability enhancers
- synergy in reactivation of HIV-1 latency [2]: synergized
- synergy with bryostatin [4]: synergized with bryostatin

SMILES: CC(=O)O[C@@]12CO[C@@H]1C[C@H](O)[C@@]1(C)C(=O)[C@H](O)C3=C(C)[C@@H](OC(=O)[C@H](O)[C@@H](NC(=O)OC(C)(C)C)c4ccccc4)C[C@@](O)([C@@H](OC(=O)c4ccccc4)[C@H]21)C3(C)C [V1, docetaxel]
- identified as variability enhancer (VE) in noise screen (HIV-1 LTR promoter [1]; [7]): variability enhancers
- high frequency noise magnitude (HF-CV^2) versus untreated polyclonal population (HIV-1 LTR promoter [5]; 10 μM, 24 hour pretreatment, tracked 12 hours, ~500 cells): increased high frequency noise magnitude; also recorded: increased noise magnitude trends above the untreated population

SMILES: O=c1[nH]c(=O)n([C@H]2C[C@H](O)[C@@H](CO)O2)cc1I [V82, idoxuridine]
- identified as variability enhancer (VE) in noise screen (HIV-1 LTR promoter [1]; [7]): variability enhancers
- concentration at maximal reactivation ([6]; 48 hours, two JLat cell lines): 50 µM
- synergy in reactivation of HIV-1 latency [2]: synergized

SMILES: C[C@@H]1CC[C@H]2[C@@H](C)C(=O)O[C@@H]3O[C@@]4(C)CC[C@@H]1[C@]32OO4 [V14, artemisinin]
- identified as variability enhancer (VE) in noise screen (HIV-1 LTR promoter [1]; [7]): variability enhancers
- concentration at peak activation ([6]; 24 and 48 hours): about 10 μM
- synergy in reactivation of HIV-1 latency [2]: synergized
- reactivation when combined with TNFα and Prostratin ([2]; VM + TNFα + Prostratin, 48 hours): further increase reactivation; also recorded: increased activation
- viability when combined with TNFα and Prostratin (JLat cell line 8.6): without significant reduction in viability
- synergy with bryostatin [4]: synergized with bryostatin

SMILES: O=C(O)COCCN1CCN(C(c2ccccc2)c2ccc(Cl)cc2)CC1 (stereo not drawn) [V11, cetirizine hydrochloride]
- gene expression noise versus compound concentration (HIV-1 LTR promoter [1]): increasing trend in gene expression noise
- identified as variability enhancer (VE) in noise screen (HIV-1 LTR promoter [1]): variability enhancers
- concentration at peak in HIV-1 reactivation [2]: 25 µM
- synergy in reactivation of HIV-1 latency [2]: synergized
- reactivation relative to Prostratin alone ([2]; hydrochloride): about twice; also recorded: about three times
- reactivation relative to TNFα alone ([2]; hydrochloride): about twice; also recorded: about three times
- reactivation relative to TNFα or Prostratin alone (dose response surface) ([2]; hydrochloride): more than three times; also recorded: almost double; also recorded: greater reactivation
- reactivation when combined with TNFα and Prostratin ([2]; hydrochloride): further increase reactivation; also recorded: increased activation
- viability when combined with TNFα and Prostratin (JLat cell line 8.6): without significant reduction in viability
- high frequency noise magnitude (HF-CV^2) versus untreated polyclonal population (HIV-1 LTR promoter [5]; hydrochloride): increased high frequency noise magnitude; also recorded: increased noise magnitude trends above the untreated population

SMILES: C[C@]12CC[C@@H]3c4ccc(OC(=O)N(CCCl)CCCl)cc4CC[C@H]3[C@@H]1CC[C@@H]2O [V3, estramustine]
- identified as variability enhancer (VE) in noise screen (HIV-1 LTR promoter [1]; [7]): variability enhancers
- synergy in reactivation of HIV-1 latency [2]: synergized
- synergy with activators [3]: synergized with either PMA, prostratin or bryostatin; also recorded: appear to synergize with all three activators

— patent US10184933B2, “Compositions, systems and methods for gene expression noise drug screening and uses thereof” (priority 2013, dated 2019)
